Results: patent US11578072B2, “Spiro-lactam NMDA receptor modulators and uses thereof” (Aptinyx Inc., priority 2018, dated 2023)

Legend:
[1] = Microsomal stability (Rat); type: in vitro ADME; settings: rat microsomes, after 60 minutes
Method: Microsomal stability of disclosed compounds was investigated. The following table indicates the percent of compound remaining after 60 minutes.

[2] = IV pharmacokinetics in rats; settings: Sprague Dawley, in vivo, rat, 2 mg/kg, normal saline
Method: Sprague Dawley rats were dosed intravenously using a normal saline formulation containing 2 mg/kg of the compounds identified in the below table. The table below summarizes the results of the IV pharmacokinetics.

[3] = test system: Sprague Dawley rats; assay: Bennett nerve injury assay (mechanical analgesia, paw withdrawal threshold); type: in vivo
Method: The Bennett model of mechanical analgesia is used to assess the analgesic effects of compounds as measured by paw withdrawal threshold. Bennett G J, Xie Y K, “A peripheral mononeuropathy in rat that produces disorders of pain sensation like those seen in man,” Pain 33:87-107, 1988. […] Vehicle animals receive the surgery and then receive vehicle rather than test compound. Animals were tested 1 hr, 24 h and 1 wk post-test compound or vehicle administration.
Male 2-3 month old Sprague Dawley rats were used. Harlan was the supplier for all studies. Rats were housed in Lucite cages with aspen wood chip bedding, maintained on a 12:12 light:dark cycle (lights on at 5 AM), and given ad libitum access to Purina lab chow (USA) and tap water throughout the study.
Rats were anesthetized using inhaled isoflurane (2.5%). Sciatic nerve chronic constriction nerve injury surgery was performed as previously described (Bennett and Xie, 1988). An incision (˜1.5 cm in length) was made with a scalpel blade dorsally through skin on the right hind limb, parallel and posterior to femur. Using a small pointed hemostat, the biceps femoris and gluteus superficialis muscles were separated. Using curved blunt forceps, the common sciatic nerve was isolated and exposed. For the mechanical analgesia studies, the whole sciatic nerve was ligated. Using hemostats/forceps and chromic gut (5-0), the nerve was loosely ligated with a square knot; 3 ligatures, 1 mm apart were placed on the nerve. […] Testing occurred approximately 2 weeks post-surgery.
During testing, rats were acclimated to the surface of a suspended wire mesh grid (1 cm×1 cm, with the wire being 0.3 cm in diameter) for 15-20 min. Starting from the smallest, each Von Frey filament was pressed perpendicularly to the plantar surface of the affected (ipsilateral) hind paw until slightly bent and then held for 6 second. If an obvious hind paw withdrawal or a flinching behavior immediately after the withdrawal of the filament was not observed, the next larger filament was used in the same manner. In case of a response, a lower filament was used. This was repeated until six responses were collected.
For all studies, animals were baselined prior to study start to test for allodynia (defined as a paw withdrawal threshold under 5). A subset of animals was tested with gabapentin (150 mg/kg, PO) to ensure at least 50% analgesia. Once it was confirmed animals were ready for study initiation, animals were balanced across groups. All study investigators were blind to treatment conditions. Animals were dosed with 0.1, 1 or 10 mg/kg of test compound via oral gavage (PO), control sets of animals were dosed with gabapentin (150 mg/kg, PO) or vehicle (0.5% Na-CMC in 0.9% sterile saline, PO). Testing occurred 1 h post-dosing with animals retested 24 hrs and 1 week post-dosing. The percent analgesia calculations for each animal were made using the following equation: % analgesia=[(log(x)−y)/((log (z)−y)]*100, where x=the paw withdrawal threshold for the drug-treated animal in grams, y=the average of the log(x) values for the vehicle treated group, and z=the paw withdrawal threshold for naïve animals in grams (historical value of 15 used). The results for Compound AD, where the percentage of analgesia is measured at 1 hour, 24 hours, and 1 week after compound administration are as follows: for 0.1 mg/kg dose: 38.7% at 1 h, 34.5% at 24 h, and 19.7% at 1 wk; for 1 mg/kg dose: 24.1% at 1 h, 26.5% at 24 h, and 13.2% at 1 wk; and for 10 mg/kg dose: 61.2% at 1 h, 45.1% at 24 h, and 39.5% at 1 wk.

CC(C)C(=O)N1CCC2(CCCNC2=O)CC1 [Compound AD, 9-isobutyryl-2,9-diazaspiro[5.5]undecan-1-one]
Microsomal (Rat): percent of compound remaining [1]: 100% | AUC(0-t) [2]: 5280 ng·h/mL | Cmax [2]: 3790 ng/mL | clearance [2]: 6.22 mL/min/kg | half-life [2]: 6.37 h | Vd ([2]; read-out: Vss): 0.92 L/kg | % analgesia ([3]; 0.1 mg/kg PO, 1 wk): 19.7% | % analgesia ([3]; 0.1 mg/kg PO, 1 h): 38.7% | % analgesia ([3]; 0.1 mg/kg PO, 24 h): 34.5% | % analgesia ([3]; 1 mg/kg PO, 1 wk): 13.2% | % analgesia ([3]; 1 mg/kg PO, 1 h): 24.1% | % analgesia ([3]; 1 mg/kg PO, 24 h): 26.5% | % analgesia ([3]; 10 mg/kg PO, 1 wk): 39.5% | % analgesia ([3]; 10 mg/kg PO, 1 h): 61.2% | % analgesia ([3]; 10 mg/kg PO, 24 h): 45.1%
